How the values were obtained:
[1] = target: T1, Rat TRPA1 expressing CHO cells (Rattus norvegicus, UniProt Q6RI86); assay: 45Calcium uptake assay, inhibition of AITC induced calcium uptake (rat); format: cell-based; conditions: rat TRPA1 CHO cells, AITC 10 μM; for inhibition at 1 µM: compound 1.0 μM, read-out: Percentage inhibition at 1.0 μM; for inhibition at 10 µM: compound 10.0 μM, read-out: Percentage inhibition at 10.0 μM; for IC50: read-out: Rat IC50 value (Range)
T1 construct: expressed in transfected cells; host or cells: CHO cells (Zeocin selection)
T1 sequence (Q6RI86 whole entry): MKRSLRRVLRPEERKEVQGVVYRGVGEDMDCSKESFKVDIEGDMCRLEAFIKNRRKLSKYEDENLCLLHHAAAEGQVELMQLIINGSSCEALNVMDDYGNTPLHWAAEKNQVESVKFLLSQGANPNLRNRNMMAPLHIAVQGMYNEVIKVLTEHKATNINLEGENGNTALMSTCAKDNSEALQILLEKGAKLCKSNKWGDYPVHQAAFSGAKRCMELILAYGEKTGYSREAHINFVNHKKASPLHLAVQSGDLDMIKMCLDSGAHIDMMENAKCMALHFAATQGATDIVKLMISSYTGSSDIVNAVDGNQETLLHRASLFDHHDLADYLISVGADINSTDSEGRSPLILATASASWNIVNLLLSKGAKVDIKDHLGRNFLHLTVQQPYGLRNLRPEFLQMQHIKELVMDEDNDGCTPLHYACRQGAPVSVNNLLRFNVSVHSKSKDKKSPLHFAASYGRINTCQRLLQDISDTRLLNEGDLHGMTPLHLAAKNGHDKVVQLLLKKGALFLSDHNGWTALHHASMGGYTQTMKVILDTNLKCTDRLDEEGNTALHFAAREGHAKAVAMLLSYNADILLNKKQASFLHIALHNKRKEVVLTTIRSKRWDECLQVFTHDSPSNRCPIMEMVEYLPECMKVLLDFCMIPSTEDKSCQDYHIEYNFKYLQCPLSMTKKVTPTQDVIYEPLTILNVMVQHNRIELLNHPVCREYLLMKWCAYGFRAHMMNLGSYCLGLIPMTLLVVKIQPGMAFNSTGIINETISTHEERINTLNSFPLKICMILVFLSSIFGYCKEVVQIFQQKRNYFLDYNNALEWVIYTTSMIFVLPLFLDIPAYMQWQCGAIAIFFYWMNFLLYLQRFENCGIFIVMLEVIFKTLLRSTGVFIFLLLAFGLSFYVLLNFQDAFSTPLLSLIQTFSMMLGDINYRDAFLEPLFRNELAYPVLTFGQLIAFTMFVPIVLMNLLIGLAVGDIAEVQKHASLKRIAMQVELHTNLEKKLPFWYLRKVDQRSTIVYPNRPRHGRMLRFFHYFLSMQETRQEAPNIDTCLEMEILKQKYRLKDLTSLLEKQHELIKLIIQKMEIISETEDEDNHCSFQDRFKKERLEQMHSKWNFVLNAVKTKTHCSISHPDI
Experimental: (§1) Screening for TRPA1 Antagonist Using the ^45Calcium Uptake Assay:
(§2) The inhibition of TRPA1 receptor activation was measured as inhibition of allyl isothiocyanate (AITC) induced cellular uptake of radioactive calcium.
(§3) Test compounds were dissolved in 100% DMSO to prepare 10 mM stock and then diluted using plain medium with 0.1% BSA and 1.8 mM CaCl2 to get the desired concentration. The final concentration of DMSO in the reaction was 0.5% (v/v). […] Rat TRPA1 expressing CHO cells were grown in F-12 DMEM medium with 10% FBS, 1% penicillin-streptomycin solution, and 400 μg/ml of Zeocin. […] Cells were treated with the test compounds for 10 minutes followed by the addition of AITC at a final concentration of 30 μM (for human TRPA1) and/or 10 μM (for rat TRPA1) and 5 μCi/ml ^45Ca^+2 for 3 minutes. Cells were washed and lysed using a buffer containing 1% Triton X-100, 0.1% deoxycholate and 0.1% SDS. Radioactivity in the lysate was measured in a Packard TopCount after addition of liquid scintillant.
(§4) Concentration response curves were plotted as a % of maximal response obtained in the absence of test antagonist. IC50 values can be calculated from concentration response curve by nonlinear regression analysis using GraphPad PRISM software.

[2] = target: T2, Human TRPA1 expressing CHO cells (Homo sapiens, UniProt O75762); assay: 45Calcium uptake assay, inhibition of AITC induced calcium uptake (human); format: cell-based; conditions: human TRPA1 CHO cells, AITC 30 μM; for inhibition at 1 µM: compound 1.0 μM, read-out: Percentage inhibition at 1.0 μM; for inhibition at 10 µM: compound 10.0 μM, read-out: Percentage inhibition at 10.0 μM; for IC50: read-out: Human IC50 value (Range)
T2 construct: expressed in transfected cells; host or cells: CHO cells (G-418 selection)
T2 sequence (O75762 whole entry): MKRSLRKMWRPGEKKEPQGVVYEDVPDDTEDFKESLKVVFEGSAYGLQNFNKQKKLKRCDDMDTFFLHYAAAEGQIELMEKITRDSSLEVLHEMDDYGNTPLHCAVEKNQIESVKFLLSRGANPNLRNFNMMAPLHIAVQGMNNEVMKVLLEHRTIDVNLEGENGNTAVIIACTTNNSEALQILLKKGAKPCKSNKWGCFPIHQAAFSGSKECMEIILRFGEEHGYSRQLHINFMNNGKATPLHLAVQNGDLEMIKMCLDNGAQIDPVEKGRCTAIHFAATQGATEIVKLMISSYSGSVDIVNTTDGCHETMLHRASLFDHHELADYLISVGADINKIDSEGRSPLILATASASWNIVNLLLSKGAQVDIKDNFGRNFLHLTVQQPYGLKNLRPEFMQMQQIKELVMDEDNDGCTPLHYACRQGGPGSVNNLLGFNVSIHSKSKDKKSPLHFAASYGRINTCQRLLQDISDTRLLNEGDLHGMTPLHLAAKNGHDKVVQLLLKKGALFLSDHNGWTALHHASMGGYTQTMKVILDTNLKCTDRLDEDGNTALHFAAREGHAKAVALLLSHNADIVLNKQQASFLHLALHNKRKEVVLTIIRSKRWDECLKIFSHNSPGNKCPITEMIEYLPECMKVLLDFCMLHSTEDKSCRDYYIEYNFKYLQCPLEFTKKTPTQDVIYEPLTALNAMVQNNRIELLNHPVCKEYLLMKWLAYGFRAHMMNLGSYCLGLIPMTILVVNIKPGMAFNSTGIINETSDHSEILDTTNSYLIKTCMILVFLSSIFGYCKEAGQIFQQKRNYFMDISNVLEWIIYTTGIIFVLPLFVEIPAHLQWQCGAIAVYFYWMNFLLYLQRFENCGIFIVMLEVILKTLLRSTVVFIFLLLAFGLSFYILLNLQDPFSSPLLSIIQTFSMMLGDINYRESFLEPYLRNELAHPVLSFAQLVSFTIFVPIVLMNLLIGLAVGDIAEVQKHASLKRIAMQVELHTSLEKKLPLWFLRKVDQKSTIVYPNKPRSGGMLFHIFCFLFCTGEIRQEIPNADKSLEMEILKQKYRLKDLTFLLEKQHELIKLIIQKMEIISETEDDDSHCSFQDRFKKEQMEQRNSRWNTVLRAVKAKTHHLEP
Experimental: as §1, §2, §3, §4

CCCc1sc2c(c1CC(=O)Nc1nc(-c3ccc(C(F)(F)F)c(F)c3)cs1)c(=O)n(C)c(=O)n2C [Example 35, N-{4-[3-Fluoro-4-(trifluoromethyl)phenyl]-1,3-thiazol-2-yl}-2-(1,3-dimethyl-2,4-dioxo-6-propyl-1,2,3,4-tetrahydrothieno[2,3-d]pyrimidin-5-yl) acetamide]
inhibition at 1 µM [1]: 90.1% | inhibition at 10 µM [1]: 98.3% | IC50 [1]: 50 to 500 nM | inhibition at 1 µM [2]: 99.1% | inhibition at 10 µM [2]: 100% | IC50 [2]: < 50 nM

CCCc1sc2c(c1CC(=O)Nc1nc(-c3cc(F)c(OC(F)F)c(F)c3)cs1)c(=O)n(C)c(=O)n2C [Example 36, N-{4-[4-Difluoromethoxy-3,5-difluorophenyl]-1,3-thiazol-2-yl}-2-(1,3-dimethyl-2,4-dioxo-6-propyl-1,2,3,4-tetrahydrothieno[2,3-d]pyrimidin-5-yl) acetamide]
inhibition at 1 µM [1]: 99.1% | inhibition at 10 µM [1]: 99.5% | IC50 [1]: 50 to 500 nM | inhibition at 1 µM [2]: 98.9% | inhibition at 10 µM [2]: 99.8% | IC50 [2]: < 50 nM

CC(C)c1sc2c(c1CC(=O)Nc1nc(-c3ccc(C(F)(F)F)c(F)c3)cs1)c(=O)n(C)c(=O)n2C [Example 37, N-{4-[3-Fluoro-4-(trifluoromethyl)phenyl]-1,3-thiazol-2-yl}-2-(6-isopropyl-1,3-dimethyl-2,4-dioxo-1,2,3,4-tetrahydrothieno[2,3-d]pyrimidin-5-yl)acetamide]
inhibition at 1 µM [1]: 94.9% | inhibition at 10 µM [1]: 97% | IC50 [1]: < 50 nM | inhibition at 1 µM [2]: 99% | inhibition at 10 µM [2]: 97.7% | IC50 [2]: < 50 nM

CC(C)Cc1ccc(-c2csc(NC(=O)Cc3scc4c3c(=O)n(C)c(=O)n4C)n2)cc1 [Example 44, 2-(1,3-Dimethyl-2,4-dioxo-1,2,3,4-tetrahydrothieno[3,4-d]pyrimidin-5-yl)-N-[4-(4-isobutylphenyl)-1,3-thiazol-2-yl]acetamide]
inhibition at 1 µM [1]: 84.1% | inhibition at 10 µM [1]: 95.3% | inhibition at 1 µM [2]: 91.4% | inhibition at 10 µM [2]: 93.2% | IC50 [2]: 50 to 500 nM

Cn1c(=O)c2c(CC(=O)Nc3nc(-c4ccc(Cl)cc4)cs3)scc2n(C)c1=O [Example 45, N-[4-(4-Chlorophenyl)-1,3-thiazol-2-yl]-2-(1,3-dimethyl-2,4-dioxo-1,2,3,4-tetrahydrothieno[3,4-d]pyrimidin-5-yl)acetamide]
inhibition at 1 µM [1]: 66.2% | inhibition at 10 µM [1]: 94.8% | inhibition at 1 µM [2]: 94% | inhibition at 10 µM [2]: 98.9% | IC50 [2]: 50 to 500 nM

Cn1c(=O)c2c(CC(=O)Nc3nc(-c4cccc(C(F)(F)F)c4)cs3)scc2n(C)c1=O [Example 46]
inhibition at 1 µM [1]: 93.2% | inhibition at 10 µM [1]: 99.7% | IC50 [1]: 50 to 500 nM | inhibition at 1 µM [2]: 93.9% | inhibition at 10 µM [2]: 98.5% | IC50 [2]: < 50 nM

Cn1c(=O)c2c(CC(=O)Nc3nc(-c4ccc(C(F)(F)F)cc4)cs3)scc2n(C)c1=O [Example 47]
inhibition at 1 µM [1]: 88.9% | inhibition at 10 µM [1]: 99.6% | inhibition at 1 µM [2]: 97.9% | inhibition at 10 µM [2]: 98.8% | IC50 [2]: < 50 nM

Cn1c(=O)c2c(CC(=O)Nc3nc(-c4cccc(OC(F)(F)F)c4)cs3)scc2n(C)c1=O [Example 48, 2-(1,3-Dimethyl-2,4-dioxo-1,2,3,4-tetrahydrothieno[3,4-d]pyrimidin-5-yl)-N-{4-[3-(trifluoromethoxy)phenyl]-1,3-thiazol-2-yl}acetamide]
inhibition at 1 µM [1]: 92.5% | inhibition at 10 µM [1]: 100% | inhibition at 1 µM [2]: 95.5% | inhibition at 10 µM [2]: 98.9% | IC50 [2]: 50 to 500 nM

Cn1c(=O)c2c(CC(=O)Nc3nc(-c4ccc(F)c(C(F)(F)F)c4)cs3)scc2n(C)c1=O [Example 49, 2-(1,3-Dimethyl-2,4-dioxo-1,2,3,4-tetrahydrothieno[3,4-d]pyrimidin-5-yl)-N-{4-[4-fluoro-3-(trifluoromethyl)phenyl]-1,3-thiazol-2-yl}acetamide]
inhibition at 1 µM [1]: 89.9% | inhibition at 10 µM [1]: 99% | IC50 [1]: 50 to 500 nM | inhibition at 1 µM [2]: 96% | inhibition at 10 µM [2]: 99.8% | IC50 [2]: < 50 nM

Cn1c(=O)c2c(CC(=O)Nc3nc(-c4ccc(C(F)(F)F)c(F)c4)cs3)scc2n(C)c1=O [Example 50, 2-(1,3-Dimethyl-2,4-dioxo-1,2,3,4-tetrahydrothieno[3,4-d]pyrimidin-5-yl)-N-{4-[3-fluoro-4-(trifluoromethyl)phenyl]-1,3-thiazol-2-yl}acetamide]
inhibition at 1 µM [1]: 57.4% | inhibition at 10 µM [1]: 99.1% | inhibition at 1 µM [2]: 99.5% | inhibition at 10 µM [2]: 100% | IC50 [2]: < 50 nM

Cn1c(=O)c2c(CC(=O)Nc3nc(-c4ccc(C(F)(F)F)cc4F)cs3)scc2n(C)c1=O [Example 51, 2-(1,3-Dimethyl-2,4-dioxo-1,2,3,4-tetrahydrothieno[3,4-d]pyrimidin-5-yl)-N-{4-[2-fluoro-4-(trifluoromethyl)phenyl]-1,3-thiazol-2-yl}acetamide]
inhibition at 1 µM [1]: 93% | inhibition at 10 µM [1]: 100% | IC50 [1]: 50 to 500 nM | inhibition at 1 µM [2]: 96.9% | inhibition at 10 µM [2]: 99.7% | IC50 [2]: < 50 nM

Cn1c(=O)c2c(CC(=O)Nc3nc(-c4ccc(OC(F)(F)F)c(F)c4)cs3)scc2n(C)c1=O [Example 52, 2-(1,3-Dimethyl-2,4-dioxo-1,2,3,4-tetrahydrothieno[3,4-d]pyrimidin-5-yl)-N-{4-[3-fluoro-4-(trifluoromethoxy)phenyl]-1,3-thiazol-2-yl}acetamide]
inhibition at 1 µM [1]: 92.3% | inhibition at 10 µM [1]: 98.1% | IC50 [1]: 50 to 500 nM | inhibition at 1 µM [2]: 98% | inhibition at 10 µM [2]: 94.4% | IC50 [2]: < 50 nM

Cn1c(=O)c2c(CC(=O)Nc3nc(-c4ccc(Cl)c(Cl)c4)cs3)scc2n(C)c1=O [Example 53, N-[4-(3,4-Dichlorophenyl)-1,3-thiazol-2-yl]-2-(1,3-dimethyl-2,4-dioxo-1,2,3,4-tetrahydrothieno[3,4-d]pyrimidin-5-yl)acetamide]
inhibition at 1 µM [1]: 42.7% | inhibition at 10 µM [1]: 97.9% | inhibition at 1 µM [2]: 97.8% | inhibition at 10 µM [2]: 99.3% | IC50 [2]: 50 to 500 nM

Cn1c(=O)c2c(CC(=O)Nc3nc(-c4cc(F)cc(C(F)(F)F)c4)cs3)scc2n(C)c1=O [Example 54, 2-(1,3-Dimethyl-2,4-dioxo-1,2,3,4-tetrahydrothieno[3,4-d]pyrimidin-5-yl)-N-{4-[3-fluoro-5-(trifluoromethyl)phenyl]-1,3-thiazol-2-yl}acetamide]
inhibition at 1 µM [1]: 41.6% | inhibition at 10 µM [1]: 91.8% | inhibition at 1 µM [2]: 95.1% | inhibition at 10 µM [2]: 99.7% | IC50 [2]: < 50 nM

Cn1c(=O)c2c(CC(=O)Nc3nc(-c4ccc(F)c(OC(F)(F)F)c4)cs3)scc2n(C)c1=O [Example 55, 2-(1,3-Dimethyl-2,4-dioxo-1,2,3,4-tetrahydrothieno[3,4-d]pyrimidin-5-yl)-N-{4-[4-fluoro-3-(trifluoromethoxy)phenyl]-1,3-thiazol-2-yl}acetamide]
inhibition at 1 µM [1]: 70.4% | inhibition at 10 µM [1]: 99.9% | inhibition at 1 µM [2]: 99.6% | inhibition at 10 µM [2]: 99.8% | IC50 [2]: < 50 nM

Cn1c(=O)c2c(CC(=O)Nc3nc(-c4ccc(C(F)(F)F)c(F)c4F)cs3)scc2n(C)c1=O [Example 56, N-{4-[2,3-Difluoro-4-(trifluoromethyl)phenyl]-1,3-thiazol-2-yl}-2-(1,3-dimethyl-2,4-dioxo-1,2,3,4-tetrahydrothieno[3,4-d]pyrimidin-5-yl)acetamide]
inhibition at 1 µM [1]: 96.9% | inhibition at 10 µM [1]: 100% | IC50 [1]: 50 to 500 nM | inhibition at 1 µM [2]: 94.4% | inhibition at 10 µM [2]: 99.5% | IC50 [2]: < 50 nM

Cn1c(=O)c2c(CC(=O)Nc3nc(-c4ccc(F)c(C(F)(F)F)c4F)cs3)scc2n(C)c1=O [Example 57, N-{4-[2,4-Difluoro-3-(trifluoromethyl)phenyl]-1,3-thiazol-2-yl}-2-(1,3-dimethyl-2,4-dioxo-1,2,3,4-tetrahydrothieno[3,4-d]pyrimidin-5-yl)acetamide]
inhibition at 1 µM [1]: 97% | inhibition at 10 µM [1]: 100% | IC50 [1]: < 50 nM | inhibition at 1 µM [2]: 96.9% | inhibition at 10 µM [2]: 91% | IC50 [2]: < 50 nM

Cn1c(=O)c2c(CC(=O)Nc3nc(-c4cc(F)c(C(F)(F)F)c(F)c4)cs3)scc2n(C)c1=O [Example 58, N-{4-[3,5-difluoro-4-(trifluoromethyl)phenyl]-1,3-thiazol-2-yl}-2-(1,3-dimethyl-2,4-dioxo-1,2,3,4-tetrahydrothieno[3,4-d]pyrimidin-5-yl)acetamide]
inhibition at 1 µM [1]: 71.1% | inhibition at 10 µM [1]: 71.7% | inhibition at 1 µM [2]: 84.9% | inhibition at 10 µM [2]: 95.8% | IC50 [2]: < 50 nM
